# Where two headings read alike, the source gives them in different places.
# Key:
# Assay type in all cases: in vivo
# [1] = system: Lolium rigidum (LOLRI); experiment: Pre-emergence herbicidal action against LOLRI
# In short: (§1)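 Greenhouse pot trial: seeds sown, soil-covered, sprayed before emergence with compound in water (0.5% additive; 600 l/ha; ≤320 g/ha). Scoring visual, ~3 weeks, 0–100% scale vs untreated.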
# [2] = system: Verconica persica (VERPE); experiment: Post-emergence herbicidal action against VERPE
# In short: (§2)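 Post-emergence greenhouse spray, one-leaf stage, 600 l/ha water plus 0.5% additive; WP or EC formulations; application rates 320 g/ha or lower. Visual % damage vs untreated controls at ~3 weeks.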
# [3] = system: Verconica persica (VERPE); experiment: Pre-emergence herbicidal action against VERPE
# In short: as §1
# [4] = system: Polygonum convolvulus (POLCO); experiment: Pre-emergence herbicidal action against POLCO
# In short: as §1
# [5] = system: Lolium rigidum (LOLRI); experiment: Post-emergence herbicidal action against LOLRI
# In short: as §2
# [6] = system: Amaranthus retroflexus (AMARE); experiment: Post-emergence herbicidal action against AMARE
# In short: as §2
# [7] = system: Alopecurus myosuroides (ALOMY); experiment: Post-emergence herbicidal action against ALOMY; settings: visual rating about 3 weeks after treatment vs untreated controls (100% = plants have died, 0% = like control plants)
# In short: as §2
# [8] = system: Viola tricolor (VIOTR); experiment: Pre-emergence herbicidal action against VIOTR
# In short: as §1
# [9] = system: Pharbitis purpurea (PHBPU); experiment: Pre-emergence herbicidal action against PHBPU; settings: dosage 320 g/ha
# In short: as §1
# [10] = system: Avena fatua (AVEFA); experiment: Pre-emergence herbicidal action against AVEFA; settings: 320 g/ha, visual scoring after about 3 weeks vs untreated controls
# In short: as §1
# [11] = system: Amaranthus retroflexus (AMARE); experiment: Pre-emergence herbicidal action against AMARE; settings: visual scoring after about 3 weeks vs untreated controls
# In short: as §1
# [12] = system: Oryza sativa (ORYSA); settings: crop plant compatibility, effect in comparison to untreated controls
# In short: (§3)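 Foliar application at the one-leaf stage: WP/EC formulation, 0.5% additive, 600 l/ha water. Greenhouse-grown in sandy loam. Endpoint is visual % injury relative to untreated controls at about 3 weeks.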
# [13] = system: Zea mays (ZEAMX); settings: crop plant compatibility, effect vs untreated controls
# In short: as §3
# [14] = system: Polygonum convolvulus (POLCO); experiment: Post-emergence herbicidal action against POLCO
# In short: as §2
# [15] = system: Oryza sativa (ORYSA); settings: pre-emergence, crop plant compatibility, in comparison to untreated controls
# In short: (§4)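 Scoring: visual, % of untreated control, about 3 weeks after a pre-emergence application to the soil surface. Application used WP or EC formulations diluted in water with 0.5% additive at 600 l/ha; dosage levels are marked by suffixes a, b and c.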
# [16] = system: Zea mays (ZEAMX); settings: pre-emergence, 80 g/ha, crop plant compatibility, in comparison to untreated controls
# In short: as §4
# [17] = system: Brassica napus (BRSNW); settings: crop plant compatibility, in comparison to untreated controls
# In short: as §4
# [18] = system: Viola tricolor (VIOTR); experiment: Post-emergence herbicidal action against VIOTR
# In short: as §2
# [19] = system: Setaria viridis (SETVI); experiment: Post-emergence herbicidal action against SETVI; settings: dosage 320 g/ha
# In short: as §2
# [20] = system: Avena fatua (AVEFA); experiment: Post-emergence herbicidal action against AVEFA; settings: visual rating about 3 weeks after treatment
# In short: as §2
# [21] = system: Echinochloa crus-galli (ECHCG); experiment: Post-emergence herbicidal action against ECHCG
# In short: as §2
# [22] = system: Alopecurus myosuroides (ALOMY); experiment: Pre-emergence herbicidal action against ALOMY; settings: 320 g/ha; scored visually after about 3 weeks; 100% = plants have died
# In short: as §1
# [23] = system: Abutilon theophrasti (ABUTH); experiment: Pre-emergence herbicidal action against ABUTH; settings: Dosage column 320 g/ha (title prints 3200 g/ha); scored visually after about 3 weeks; 100% = plants have died
# In short: as §1
# [24] = system: Pharbitis purpurea (PHBPU); experiment: Post-emergence herbicidal action against PHBPU
# In short: as §2
# [25] = system: Matricaria inodora (MATIN); experiment: Pre-emergence herbicidal action against MATIN; settings: dosage 320 g/ha
# In short: as §1
# [26] = system: Abutilon theophrasti (ABUTH); experiment: Post-emergence herbicidal action against ABUTH; settings: 320 g/ha, visual rating about 3 weeks after treatment vs untreated controls (100% = plants have died, 0% = like control plants)
# In short: as §2
# [27] = system: Echinochloa crus-galli (ECHCG); experiment: Pre-emergence herbicidal action against ECHCG; settings: dosage 320 g/ha
# In short: as §1
# [28] = system: Setaria viridis (SETVI); experiment: Pre-emergence herbicidal action against SETVI; settings: dosage 320 g/ha
# In short: as §1
# [29] = system: Triticum aestivum (TRZAS); settings: crop plant compatibility, effect vs untreated controls
# In short: as §3
# [30] = system: Digitaria sanguinalis (DIGSA); experiment: Pre-emergence herbicidal action against DIGSA; settings: dosage 320 g/ha
# In short: as §1
# [31] = 80 g/ha, visual rating about 3 weeks after treatment vs untreated controls (100% = plants have died, 0% = like control plants)
# [32] = 320 g/ha, visual rating about 3 weeks after treatment
Compound,Post-emergence action against ORYSA in % ([12]; 80 g/ha) [%],Post-emergence action against ZEAMX in % ([13]; 80 g/ha) [%],Pre-emergence action against ORYSA in % ([15]; 80 g/ha) [%],Pre-emergence action against ZEAMX in % [16] [%],Pre-emergence action against BRSNW in % ([17]; 80 g/ha) [%],Pre-emergence action against LOLRI in % ([1]; dosage 320 g/ha) [%],"Post-emergence action against VERPE in % ([2]; 320 g/ha, VERPE) [%]",Pre-emergence action against VERPE in % ([3]; dosage 320 g/ha) [%],Pre-emergence action against POLCO in % ([4]; dosage 320 g/ha) [%],Post-emergence action against LOLRI in % ([5]; dosage 320 g/ha) [%],"Post-emergence action against AMARE in % [6, 32] [%]",Post-emergence action against ALOMY in % ([7]; 320 g/ha) [%],"Pre-emergence action against VIOTR in % ([8]; 320 g/ha, Viola tricolor) [%]",Pre-emergence action against AVEFA in % [10] [%],Pre-emergence action against AMARE in % ([11]; 320 g/ha) [%],Post-emergence action against POLCO in % ([14]; dosage 320 g/ha) [%],Post-emergence action against SETVI in % [19] [%],Post-emergence action against AVEFA in % ([20]; 320 g/ha) [%],Post-emergence action against ECHCG in % ([21]; dosage 320 g/ha) [%],Pre-emergence action against ALOMY [22] [%],also measured
COC(=O)[C@@H](C)Oc1nn(-c2nc(F)ccc2F)c(-c2ccc(F)nc2)c1Br [Example I-319],0,10,–,–,20,100,80,90,90,80,80,90,100,100,100,80,80,80,90,100,Pre-emergence action against LOLRI in % ([1]; dosage 80 g/ha): 90%; Pre-emergence action against ABUTH [23]: 80%; Pre-emergence action against VERPE in % ([3]; dosage 80 g/ha): 80%; Post-emergence action against LOLRI in % ([5]; dosage 80 g/ha): 80%; Post-emergence action against ALOMY in % ([7]; 80 g/ha): 90%; Post-emergence action against PHBPU in % ([24]; dosage 80 g/ha): 80%; Post-emergence action against PHBPU in % ([24]; dosage 320 g/ha): 90%; Pre-emergence action against VIOTR in % ([8]; dosage 80 g/ha): 100%; Pre-emergence action against MATIN in % [25]: 90%; Pre-emergence action against PHBPU in % [9]: 90%; Post-emergence action against ABUTH in % [26]: 80%; Pre-emergence action against ECHCG in % [27]: 100%; Pre-emergence action against SETVI in % [28]: 100%; Post-emergence action against VIOTR in % ([18]; 80 g/ha): 80%; Post-emergence action against VIOTR in % ([18]; 320 g/ha): 90%; Post-emergence action against AVEFA in % ([20]; 80 g/ha): 80%; Post-emergence action against ECHCG in % ([21]; dosage 80 g/ha): 80%
Cc1cccc(-n2nc(OCC(=O)O)c(Cl)c2-c2ccc(F)nc2)n1 [Example I-351],0,10,20,–,20,–,80,80,80,80,80,–,–,80,80,80,80,–,80,–,"Pre-emergence action against POLCO in % ([4]; dosage 80 g/ha): 80%; Post-emergence action against AMARE in % [6, 31]: 80%; Post-emergence action against PHBPU in % ([24]; dosage 320 g/ha): 80%; Pre-emergence action against MATIN in % [25]: 80%; Pre-emergence action against ECHCG in % [27]: 90%; Post-emergence action against TRZAS in % ([29]; 80 g/ha): 0%; Post-emergence action against TRZAS in % ([29]; 320 g/ha): 10%; Pre-emergence action against SETVI in % [28]: 100%"
COC(=O)C=CC(C)NC(=O)COc1nn(-c2ccccn2)c(-c2ccc(F)nc2)c1Br (centres unmarked) [Example I-297],–,–,10,10,20,–,80,–,–,–,–,–,–,–,80,–,–,–,–,80,Pre-emergence action against DIGSA in % [30]: 80%; Post-emergence action against ZEAMX in % ([13]; 320 g/ha): 0%; Post-emergence action against TRZAS in % ([29]; 80 g/ha): 10%; Pre-emergence action against ORYSA in % ([15]; 320 g/ha): 20%
COC(=O)CCOC(=O)COc1nn(-c2ncccc2F)c(-c2ccc(F)nc2)c1Cl [Example I-272],10,10,10,0,0,80,80,–,–,–,–,90,90,100,90,80,80,80,80,90,Pre-emergence action against SETVI in % [28]: 90%

# Further lines, with some results ahead:
Post-emergence action against ORYSA in % ([12]; 80 g/ha) [%],Post-emergence action against ZEAMX in % ([13]; 80 g/ha) [%],Pre-emergence action against ORYSA in % ([15]; 80 g/ha) [%],Pre-emergence action against ZEAMX in % [16] [%],Pre-emergence action against BRSNW in % ([17]; 80 g/ha) [%],Compound,Pre-emergence action against LOLRI in % ([1]; dosage 320 g/ha) [%],"Post-emergence action against VERPE in % ([2]; 320 g/ha, VERPE) [%]",Pre-emergence action against VERPE in % ([3]; dosage 320 g/ha) [%],Pre-emergence action against POLCO in % ([4]; dosage 320 g/ha) [%],Post-emergence action against LOLRI in % ([5]; dosage 320 g/ha) [%],"Post-emergence action against AMARE in % [6, 32] [%]",Post-emergence action against ALOMY in % ([7]; 320 g/ha) [%],"Pre-emergence action against VIOTR in % ([8]; 320 g/ha, Viola tricolor) [%]",Pre-emergence action against AVEFA in % [10] [%],Pre-emergence action against AMARE in % ([11]; 320 g/ha) [%],Post-emergence action against POLCO in % ([14]; dosage 320 g/ha) [%],Post-emergence action against SETVI in % [19] [%],Post-emergence action against AVEFA in % ([20]; 320 g/ha) [%],Post-emergence action against ECHCG in % ([21]; dosage 320 g/ha) [%],Pre-emergence action against ALOMY [22] [%],also measured
0,0,0,20,0,CCOC(=O)COc1nn(-c2ncccc2C(F)(F)F)c(-c2ccc(F)nc2)c1Br [Example I-335],90,90,80,90,90,80,100,100,80,90,80,90,90,90,80,"Post-emergence action against VERPE in % ([2]; dosage 80 g/ha): 90%; Post-emergence action against AMARE in % [6, 31]: 80%; Pre-emergence action against PHBPU in % [9]: 80%; Post-emergence action against ZEAMX in % ([13]; 320 g/ha): 20%; Post-emergence action against POLCO in % ([14]; dosage 80 g/ha): 80%; Pre-emergence action against BRSNW in % ([17]; 320 g/ha): 0%; Post-emergence action against VIOTR in % ([18]; 80 g/ha): 80%; Post-emergence action against VIOTR in % ([18]; 320 g/ha): 90%; Post-emergence action against ECHCG in % ([21]; dosage 80 g/ha): 80%"
10,10,0,0,0,COCCOC(=O)COc1nn(-c2ncccc2C(F)(F)F)c(-c2ccc(F)nc2)c1Br [Example I-378],90,80,–,80,–,–,–,90,–,90,–,80,–,80,80,Post-emergence action against ABUTH in % [26]: 80%; Pre-emergence action against AMARE in % ([11]; 80 g/ha): 80%
20,0,20,0,0,COC(=O)CCOC(=O)COc1nn(-c2ncccc2C(F)(F)F)c(-c2ccc(F)nc2)c1Br [Example I-381],90,80,–,80,80,–,–,90,–,90,–,–,–,80,90,Pre-emergence action against VIOTR in % ([8]; dosage 80 g/ha): 80%; Post-emergence action against ORYSA in % ([12]; 320 g/ha): 20%
